Assay results as given in patent publication US10087142B2, “Azetidine derivatives useful as modulators of cortical cathecolaminergic neurotransmission” (Integrative Research Laboratories Sweden AB, priority 2015, dated 2018).
Read-outs that look alike come from different tables or passages of the source. Marks after values point to notes of the source that are not given here.

Experiments:
[1] = test system: monoamine transmitters (NA, DA and 5-HT); assay: In vivo brain microdialysis of monoamines in striatum and frontal cortex; parameters: species or system rat; conditions: rats; for response vs control in vivo at 16.7 µmol/kg: Rattus norvegicus, sc
From the text: The microdialysis technique (See, for instance, Collin and Ungerstedt, Microdialysis: user's guide, Carnegie Medicin, Stockholm, 1988) is a well-established technique for measuring extracellular levels of neurotransmitters (Ungerstedt, J Int Med, 1991, 230; 365-73). The microdialysis technique was used to measure the effect of compounds disclosed herein upon the efflux of monoamine transmitters (NA, DA and 5-HT) in striatum and frontal cortex in conscious, freely moving rats.
Male Sprague-Dawley rats weighing 280-320 g were used throughout the experiments. Before the experiment the animals were housed in groups, maximum five animals in each cage, with free access to water and food. The animals were housed at least one week prior to surgery and use in the experiments.
A modified version (Waters et al., J Neural Transm Gen Sect, 1994, 98(1); 39-55) of the I-shaped probe (Santiago and Westerink, N-S Arch Pharmacol, 1990, 342; 407-14) with the AN69 polyacrylonitrile/sodium methyl sulfonate copolymer (HOSPAL; o.d/i.d. 310/220 μm: dialysis membrane (Gambro, Lund, Sweden) was used in the microdialysis experiments. In the dorsal striatum, probes with an exposed length of 3 mm of dialysis membrane were used and in the prefrontal cortex the corresponding length was 2.5 mm. The rats were operated under isoflurane inhalation anesthesia while mounted into a Kopf stereotaxic instrument. Coordinates were calculated relative to bregma; dorsal striatum AP+1.0, ML±2.6, DV 6.2; Pf cortex, AP 15+3.2, ML+1.2, DV −4.08°, according to Paxinos and Watson (New York, Academic Press, 1986; FIG. 8 and FIG. 14). The dialysis probe was positioned in a burr hole under stereotaxic guidance and cemented with phosphatine dental cement (DAB Dental).
The rats were housed individually in cages for 48 h before the dialysis experiments, allowing them to recover from surgery and minimizing the risk of drug interactions with the anesthetics during the following experiments. During this period the rats had free access to food and water.
On the day of the experiment the rats were connected to a micro-perfusion pump via a swivel and were replaced in the cage where they could move freely within its confinements. The perfusion medium was a Ringer's solution containing (in mmol/I): NaCl; 140, CaCl2; 1.2, KCl; 3.0, MgCl2; 1.0 (Moghaddam and Bunney. Neurochem., 1989, 53; 652-4). The pump was set to a perfusion speed of 2 μl/min and 40 μl sample volume were collected every 20 min.
The rats were perfused for at least 40 min before sampling began. Five fractions of each 20 min were collected and the last three were used for the establishment of the baseline. After collection of baseline fractions, the pharmacological challenge to the dialysis experiment started. Test compounds were administrated by injection (s.c.) in a volume of 5 ml/kg, with 0.9% NaCl (saline) as vehicle.
The analytical method were based on two chromatographic separations dedicated for amines or acids. Two chromatographic systems shared a common auto injector with a 10-port valve and two sample loops for simultaneous injection on the two systems.
The acids were separated by reversed phase chromatography while the amines were separated by reversed phase ion pairing chromatography preceded by a reverse phase separation in a column switching configuration. Three separation columns (Luna C18 (2), dp 3 μm, 2 mm i.d., Phenomenex) of different lengths were used. Electrochemical detection was accomplished on glassy carbon electrodes (MF-1000, Bioanalytical Systems, Inc.)
The aqueous mobile phase (0.6 ml/min) for the acid system contained citric acid (40 mM, dipotassium hydrogen phosphate 10 mM, methanol 8-11% (v/v) and EDTA 0.1 mM. Column length was 30 mm and detection potential relative to Ag/AgCl reference was 0.74V. […]

Arc mRNA = assay: m-RNA analysis: Arc mRNA tissue levels in brain regions; type: in vivo, rat; conditions: 33 μmol/kg s.c., rats, 65 min before sacrifice, n = 5; for Arc frontal cortex ± SEM: frontal cortex tissue; for Arc striatum ± SEM: striatum tissue
Experimental: Sesack et al. (Anatom Substr Glut-Dopamine Inter. Annals of NY AcadSci, 2003, 1003; 36-52) discloses that the dopaminergic systems of the brain interact strongly with central glutamate neurotransmission. To investigate potential effects of compounds as disclosed herein on cortical and striatal NMDA type glutamate receptor related synaptic signaling, Arc mRNA induction was assessed upon acute administration. Arc (Arc/Arg3.1-activity regulated cytoskeleton-associated protein/activity-regulated gene 3.1; (Link W et al., Proc Natl Acad Sci, USA, 1995, 92; 5734-8 and Lyford G L et al., Neuron, 1995, 14; 433-45), is an immediate early gene (IEG), induced by synaptic activity, whose expression and localization at synaptic sites is triggered specifically by NMDA receptor activation and strongly related to neural plasticity (Steward and Worley, Neuron, 2001, 30; 227-40, Kawashima et al., PNAS, 2009, 106(1); 316-21 and Bramham et al., Exp Brain Res, 2010, 200; 125-40).
[…] were dissected into […] different areas: Limbic system (containing nucleus accumbens, most parts of the olfactory tubercle, ventral pallidum), striatum, frontal cortex, hippocampus and the remaining cortex.
Total RNA was prepared by the guanidin isothiocyanate method (Chomczynski P and Sacchi N, Anal Biochem, 1987, 162(1); 156-9). RNA pellets were solved in RNAse-free water and stored at −80° C. The sample concentration was determined spectrophotometrically by a NanoDrop ND1000 (Saveen Werner). A quality indicator number and an integrity number of r-RNA were measured with an Experion (Bio-rad).
A two-step reversed transcription was performed by using a SuperScript III kit (Invitrogen). 1 μg of total RNA was reverse transcribed with 5 μl 2×RT Reaction Mix, 1 μl RT Enzyme Mix, in a total volume adjusted to 10 μl with DEPC-treated water. 1 U of E. coli RNase H was added. c-DNA was diluted 40 times and stored at −20° C.
Three sequences (one gene of interest and two reference genes) were amplified together in a triplex PCR-reaction. For real-time PCR measurements: 5 μl of c-DNA reaction was amplified in a 20 μl reaction mixture containing 10 μl PerfeCta Multiplex qPCR Supermix (Quanta, VWR), 3.5 μl RNAse-free water, 0.15 μM of each primer and 0.1 μM of each probe. Real-time PCR was measured on CFX96 (Bio-rad) using the following settings for all genes: 3 min pre-incubation at 95° C. followed by 40 cycles of denaturation at 95° C. for 15 s, annealing and elongation at 60° C. for 1 minute.
Reference genes are HPRT and cyclophilin.
The primer and probe sequences are as follows for measuring of arc:
Correct PCR products are confirmed by agarose gel electrophoresis (2%) PCR products are purified with PCR purification kit from Qiagen (Valencia, Calif., USA). All genes are sequenced at MWG, Germany. […]

[2] = 50 μmol/kg s.c., striatum dialysate
[3] = 16.7 μmol/kg s.c., striatum dialysate, read-out: DA Stri ± SEM, maximum effect compared to baseline
[4] = 16.7 μmol/kg s.c., frontal cortex dialysate, Fumarate Salt
[5] = 16.7 μmol/kg s.c., striatum dialysate, Fumarate Salt

Structure (SMILES)	NA Stri ± SEM, maximum effect compared to baseline ([1]; 16.7 μmol/kg s.c., striatum dialysate)	5-HT FC ± SEM, maximum effect compared to baseline ([1]; 50 μmol/kg s.c., frontal cortex dialysate)	5-HT Stri ± SEM, maximum effect compared to baseline [1, 2]	DA Stri ± SEM, maximum effect compared to baseline [1, 2]	NA Stri ± SEM, maximum effect compared to baseline [1, 2]	response vs control in vivo at 16.7 µmol/kg ([1]; 16.7 μmol/kg s.c., frontal cortex dialysate, read-out: 5-HT FC ± SEM, maximum effect compared to baseline) [%]	response vs control in vivo at 16.7 µmol/kg ([1]; 16.7 μmol/kg s.c., frontal cortex dialysate, read-out: DA FC ± SEM, maximum effect compared to baseline) [%]	response vs control in vivo at 16.7 µmol/kg ([1]; 16.7 μmol/kg s.c., frontal cortex dialysate, read-out: NA FC ± SEM, maximum effect compared to baseline) [%]	response vs control in vivo at 16.7 µmol/kg ([1]; 16.7 μmol/kg s.c., striatum dialysate, read-out: 5-HT Stri ± SEM, maximum effect compared to baseline) [%]	response vs control in vivo at 16.7 µmol/kg [1, 3] [%]	Arc frontal cortex ± SEM (Arc mRNA)	Arc striatum ± SEM (Arc mRNA)	5-HT FC ± SEM, maximum effect compared to baseline [1, 4]	DA FC ± SEM, maximum effect compared to baseline [1, 4]	NA FC ± SEM, maximum effect compared to baseline [1, 4]	5-HT Stri ± SEM, maximum effect compared to baseline [1, 5]	NA Stri ± SEM, maximum effect compared to baseline [1, 5]
Cl.Fc1cccc(C(F)C2CNC2)c1F (single isomer, unassigned; (-)) [Example 1, (−)-3-[(2,3-Difluorophenyl)(Fluoro)Methyl]Azetidine Hydrochloric Acid Salt]	150 ± 30^c percent of control	188 ± 16^c percent of control	184^a percent of control	204 ± 90^b percent of control	145^a percent of control	146 ± 8	495 ± 58	688 ± 102	171 ± 21	135 ± 19	169 ± 8% of control means	133 ± 9% of control means					
Fc1cc(F)cc(C(F)C2CNC2)c1.O=C(O)/C=C/C(=O)O (single isomer, unassigned; (-)) [Example 3, (−)-3-[(3,5-Difluorophenyl)(Fluoro)Methyl]Azetidine Fumarate Salt]										116 ± 4	137 ± 6% of control means	90 ± 7% of control means	137 ± 16^c percent of control	444 ± 51^c percent of control	534 ± 45^c percent of control	124 ± 6^c percent of control	137^a percent of control
